The text below walks through data of US8440442B2, “Method of assaying 5-FU” (Myriad Genetics, Inc, priority 2009, dated 2013).

The target of the test is T1, dihydropyrimidine dehydrogenase (DPD) (Homo sapiens, UniProt Q12882).
T1 construct: from tissue; host or cells: donor whole blood (K2EDTA), plasma separated from it, and WBC/buffy coat
T1 sequence (Q12882 4-1025): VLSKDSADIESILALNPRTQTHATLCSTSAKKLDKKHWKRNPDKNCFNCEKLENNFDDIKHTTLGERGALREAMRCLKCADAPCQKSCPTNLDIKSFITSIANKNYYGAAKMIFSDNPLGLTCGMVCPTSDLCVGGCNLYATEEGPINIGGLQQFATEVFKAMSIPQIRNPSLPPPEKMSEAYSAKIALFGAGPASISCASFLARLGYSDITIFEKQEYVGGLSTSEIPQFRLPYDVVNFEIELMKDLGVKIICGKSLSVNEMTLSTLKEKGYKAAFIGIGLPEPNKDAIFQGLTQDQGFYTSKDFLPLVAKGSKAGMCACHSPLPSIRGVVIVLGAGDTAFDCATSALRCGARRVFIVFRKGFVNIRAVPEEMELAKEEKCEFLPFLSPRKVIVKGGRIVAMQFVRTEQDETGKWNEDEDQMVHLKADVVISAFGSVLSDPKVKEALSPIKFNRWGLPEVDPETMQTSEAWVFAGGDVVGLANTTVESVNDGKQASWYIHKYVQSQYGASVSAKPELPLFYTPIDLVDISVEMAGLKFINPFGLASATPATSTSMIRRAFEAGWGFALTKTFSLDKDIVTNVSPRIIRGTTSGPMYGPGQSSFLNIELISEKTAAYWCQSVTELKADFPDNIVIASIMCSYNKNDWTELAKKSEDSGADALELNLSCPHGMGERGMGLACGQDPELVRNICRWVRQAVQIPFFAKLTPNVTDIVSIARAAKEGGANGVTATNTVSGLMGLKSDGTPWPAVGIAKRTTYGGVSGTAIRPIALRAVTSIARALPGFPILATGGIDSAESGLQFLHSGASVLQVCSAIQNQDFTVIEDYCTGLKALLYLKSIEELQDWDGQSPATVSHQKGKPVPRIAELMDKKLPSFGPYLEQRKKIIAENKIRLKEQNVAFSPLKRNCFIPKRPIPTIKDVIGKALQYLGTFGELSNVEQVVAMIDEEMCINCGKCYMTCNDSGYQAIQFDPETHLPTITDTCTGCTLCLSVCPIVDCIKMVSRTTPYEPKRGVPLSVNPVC
Put plainly: Amount of DPD inactivator needed: gimeracil in 5-FU spiked blood, plasma with or without added WBC/buffy coat. To be noted: for Average 5-FU Measurement Initial / Average 5-FU Measurement 24-hour: in ng/mL; for Average 5-FU Measurement 24-hour: plasma 24 hours at room temperature. It counts as biochemical. Here is the method:
In the following illustrative examples, 5-FU was measured using an antibody-based agglutination assay on the Olympus AU680 Analyzer using an antibody disclosed in U.S. Pat. No. 7,205,116. Specifically, the concentration of 5-FU in a sample is determined based on the absorbance of a sample, which is determined by the amount of aggregation by the nanoparticles. The system requires two reagents, which when mixed in the absence of free 5-FU will form large aggregates of nanoparticles and scatter light to result in a higher absorption value. In the presence of free 5-FU, the agglutination reaction becomes somewhat inhibited and scattering of light is less, causing a lower absorption value. The instrument is calibrated twice monthly, and a curve is generated (Absorbance vs. 5-FU concentration). Absorbance values from individual samples are compared against this curve to determine concentration.
Generally in the agglutination assay, 95 μl of a buffer containing 5-FU-labeled amino-dextran is pipetted to a cuvette, followed by 7 μL of a filtered plasma sample. The sample and reagent are mixed and then incubated for about 3.5 minutes. 95 μl of 5-FU antibody-conjugated nanoparticles is pipetted into the cuvette and mixed. The complete reaction incubates for about 6.2 minutes. A series of 27 measurements at 600 nm are taken at regular intervals by the AU680 analyzer throughout this process, and 5-FU concentration is calculated using the measurements from two specific time points.
Four tubes of blood (spray-on K2EDTA tubes, 10 mL) was drawn from each of six donors, and gently inverted several times to mix anti-coagulant. All donor blood was pooled into one large tube, and two equal aliquots of that pooled blood were transferred to two new tubes. The remaining blood was used to isolate white blood cell (WBC)/buffy coat. WBC/buffy coat was isolated by centrifuging the remaining blood tubes, extracting and pooling the WBC layer from each tube, centrifuging again to enrich the WBC/buffy coat, and separating the enriched WBC/buffy coat layer into a clean tube. One volume of blood was spiked with a calculated volume of stock 5-FU (at 200 ng/μL) for a final concentration of 500 ng/mL, and the other volume of blood was spiked with a calculated volume of stock 5-FU (at 200 ng/μL) for a final concentration of 1500 ng/mL. Three sets of eight tubes each were prepared to aliquot the spiked blood into. In addition, a negative control was used that was inoculated with 300 μL of 30% methanol/water instead of gimeracil. To four of the eight tubes per set, the low concentration 5-FU blood was aliquotted, 6 mL each tube. The high concentration 5-FU blood was aliquotted to the remaining four tubes per set, as well as to the negative control tube, 6 mL each. The eight tubes were then inoculated with either 300 μL of 0.12 mg/mL gimeracil in 30% MeOH/water or 300 μL of 0.04 mg/mL gimeracil. Blood tubes were inverted to mix the gimeracil, and then sat at room temperature for 45 minutes. Blood tubes were centrifuged at 2000×g for 10 minutes and room temperature. Plasma was aspirated immediately after centrifugation and dispensed into clean cryovials. The WBC/buffy coat was added to designated tubes of plasma, and vortexed to evenly mix. Plasma samples were run under standard conditions for the AU680 analyzer (200 μL, spin for 15 minutes at 12,500 rpm). Measurements were taken immediately after adding WBC/buffy coat (“initial”), as well as 24 hours (“24-hour”), after addition of WBC/buffy coat. For the 24-hour measurement, plasma was stored at room temperature for the first 24 hours of the experiment to simulate overnight ambient shipping.

[1] abbreviates: target 5-FU 500 ng/mL, gimeracil 2000 ng/mL, NO WBC.
Setting [2] is: target 5-FU 500 ng/mL, gimeracil 2000 ng/mL, w/WBC.
The mark [3] stands for this setting: target 5-FU 500 ng/mL, gimeracil 6000 ng/mL, NO WBC.
[4] abbreviates: target 5-FU 500 ng/mL, gimeracil 6000 ng/mL, w/WBC.
Where [5] appears, read: target 5-FU 1500 ng/mL, gimeracil 2000 ng/mL, NO WBC.
The mark [6] stands for this setting: target 5-FU 1500 ng/mL, gimeracil 2000 ng/mL, w/WBC.
Where [7] appears, read: target 5-FU 1500 ng/mL, gimeracil 6000 ng/mL, NO WBC.
[8] abbreviates: target 5-FU 1500 ng/mL, gimeracil 6000 ng/mL, w/WBC.

For `Oc1cc(O)c(Cl)cn1` [Gimeracil, 5-chloro-2,4-dihydroxypyridine], the “% change (Initial vs. 24-hour)” value is, setting by setting: under setting [1], −2.9%; under setting [2], 2.7%; under setting [3], 1.7%; under setting [4], 1.0%; under setting [5], −0.5%; under setting [6], 2.9%. In addition, the “% change (Initial vs. 24-hour)” value is 2.0% under setting [7] and −0.9% under setting [8]. The “Average 5-FU Measurement Initial” value by setting is: (target 5-FU 500 ng/mL, gimeracil 2000 ng/mL, NO WBC, initial) 488.3; (target 5-FU 500 ng/mL, gimeracil 2000 ng/mL, w/WBC, immediately after adding WBC/buffy coat) 465.8; (target 5-FU 500 ng/mL, gimeracil 6000 ng/mL, NO WBC, initial) 479.1; (target 5-FU 500 ng/mL, gimeracil 6000 ng/mL, w/WBC, initial) 473.7; (target 5-FU 1500 ng/mL, gimeracil 2000 ng/mL, NO WBC, initial) 1434.9; (target 5-FU 1500 ng/mL, gimeracil 2000 ng/mL, w/WBC, initial) 1377.7. For the same molecule, the “Average 5-FU Measurement Initial” value runs as follows: (target 5-FU 1500 ng/mL, gimeracil 6000 ng/mL, NO WBC, initial) 1430.3; (target 5-FU 1500 ng/mL, gimeracil 6000 ng/mL, w/WBC, initial) 1402.9. In addition, the “Average 5-FU Measurement 24-hour” value under setting [1] came to 474.3; the “Average 5-FU Measurement 24-hour” value under setting [2] was 478.6; the “Average 5-FU Measurement 24-hour” value under setting [3] was found to be 487.3; the “Average 5-FU Measurement 24-hour” value under setting [4] turned out to be 478.6; the “Average 5-FU Measurement 24-hour” value under setting [5] was 1427.3; the “Average 5-FU Measurement 24-hour” value under setting [6] came to 1418.1. The “Average 5-FU Measurement 24-hour” value by setting is: under setting [7], 1458.3; under setting [8], 1390.1.
